Reference: patent US20110236393A1, “MONOCLONAL ANTIBODY PRODUCTION IN B CELLS AND USES THEROF” (Duke University, priority 2008, published 2011)

Assays:
[1] = tested on: CD19+ B cells of CFSE-stained PBMC; experiment: CFSE/CD19 B cell proliferation after EBV infection of PBMC; assay type: cell-based, human; details: for B cell proliferation in the absence of EBV: 5 μM, no EBV, six days post treatment; for B-cell proliferation (CD19+/CFSElo cells of total PBMCs): EBV infection in presence of 1, 2, 5, 10 μM inhibitor, 14 days post infection
Text: FIGS. 4A, 4B and 4C show inhibition of ATM or Chk2 increased the proliferation of B cells following EBV infection. FIG. 4A is a dot plot of EBV-mediated proliferation following infection of CFSE-stained PBMC, detected by FACS using CD19-PE staining of B cells and CFSE to monitor cell divisions, at 2 and 6 days post infection. At day 2 post infection there was little proliferation, while by day 6 there was clear B cell proliferation induced by the virus. FIG. 4B is a histogram illustrating the effect of CFSE-stained PBMC infected with EBV in the presence of increasing amounts of ATMi or Chk2i (0.1% DMSO, 1 μM, 2 μM, 5 μM, and 10 μM). The percentage of CD19+/CFSElo cells of total PBMCs at 14 days post infection are plotted. The data shown are the average values from two different normal donors with error bars reflecting the standard error. […] FIG. 4C includes dot plots of the proliferation of CFSE-stained PBMC treated with DMSO, 5 μM ATMi, 5 μM Chk21, or infected with EBV. Six days post treatment/infection cells were stained with CD19-PE antibody and proliferation of B cells was assessed. […] The difference in relative B cell proliferation at day six between FIGS. 4A and 4C was due to normal donor variation.
To further characterize the ATM- and Chk2-dependent block to EBV-mediated transformation, B cell proliferation early after infection was analyzed. PBMC were infected and B cell proliferation was followed over time using the fluorescent dye CFSE and CD19 staining of B cells. CFSE staining assays proliferation as its fluorescence is halved in daughter cells. PBMC were stained with the cell permeable dye carboxyfluorescein succinimidyl ester (CFSE). This dye enters the cytoplasm and is cleaved to fluoresce immediately by intracellular esterases. The dye is maintained in cells at a concentration that divides by half with each cell division. Thus, each two-fold reduction of CFSE fluorescence readout by flow cytometry correlates with one cycle of proliferation. CFSE-labeled PBMC were infected with EBV and B cell proliferation was monitored by CD19-PE or APC labeling cells at different days after infection. Flow cytometry was used to analyze the CD19 and CFSE levels in gated live cells (by forward versus side scatter). The percentage of CD19+ cells that have proliferated (CFSElo) relative to total PBMC cell numbers were plotted to indicate a relative proliferation index in panel B of FIG. 4. Using the CD19 marker and CFSE the proliferation of B cells during the early stages of transformation were specifically followed (FIG. 4A).
The above experiments were followed with washout and time of addition experiments using either ATM or Chk2 inhibitor. EBV-infected B cells were determined to be sensitive to the inhibitors between 4 and 8 days after infection. […]

[2] = tested on: PBMC infected with EBV (B95-8); experiment: EBV transformation efficiency (EBV-induced LCL outgrowth following PBMC infection); assay type: cell-based, human; details: for increase of EBV-mediated transformation efficiency: relative to DMSO (set to 1), LCL positive wells at six weeks post infection
Description: FIGS. 3A and 3B are graphical plots showing the inhibition of ATM and Chk2 kinases increased EBV transformation efficiency. […] The percentages of wells positive for LCLs at six weeks post infection were plotted relative to the amount of B95-8 virus used per well. The efficiency of transformation was determined by the amount of virus necessary to induce 63% positive wells as indicated by a Poisson's distribution. This value was set to 1 for the DMSO treated infections. The difference between DMSO and 5 μM ATMi treated infections was ˜30-fold increased efficiency in the presence of 5 μM ATMi. In FIG. 3B similar experiments were performed using DMSO (diamond), 2 μM Chk2i II (square), or 5 μM Chk2i II (triangle).
Methods of infecting B cells with EBV are known to those of skill in the art. In some embodiments B cells can be infected with EBV as disclosed in the Examples below. In some embodiments primary human peripheral blood mononuclear cells (PBMCs) can be infected with the EBV strain B95-8 with dilutions starting from a multiplicity of infection such that all B cells express the EBV latent gene expression program (approximately 100 particles/cell) through a dilution where no LCLs grow out. Culturing of the EBV-infected cells in RPMI 1640, 10% FCS, antibiotics, and in the presence of cyclosporine to suppress T cell activity, allows for the outgrowth of LCLs at approximately 1-5% efficiency (transformant/infected cell) within 5 weeks. Scoring of LCL outgrowth can be performed using techniques and analytical equipment as is know to those of skill in the art. By way of example and not limitation, scoring of LCL outgrowth can be performed using a Cellomics Vti Array Scan instrument (ThermoFisher Scientific, Waltham, Mass., United States of America) following Calcein-AM live cell fluorescent staining, which allows for an unbiased readout of LCL outgrowth. […]
Likewise, the downstream ATM target, Chk2, was evaluated for its ability to inhibition EBV-mediated proliferation of B cells. […]

[3] = tested on: memory B cells from chronic HIV-1-infected patients; experiment: Frequency of IgG positive cell clones of EBV transformed memory B cells; assay type: cell-based, human; details: EBV transformation in presence vs absence of Chk2i II
Text: FIG. 13 is a scatter plot of the frequency of IgG positive cell clones of EBV transformed memory B cells from chronic HIV-1-infected patients in the presence or absence of Chk2i II. An increase in the frequency of IgG positive cell clones in the presence of Chk2i II was observed.
Identification of a HIV-Specific Neutralizing Antibody Following EBV Transformation of Memory B Cells from a Patient Chronically Infected with HIV in the Presence of an Inhibitor of the DNA Damage Response Using the methods of the presently disclosed subject matter, memory B cells from a chronic HIV-1-infected patient were EBV transformed. An increase in the frequency of IgG positive cell clones in the presence of Chk2i II was observed (FIG. 13). It was then determined whether these antibodies would specifically recognize HIV glycoproteins and whether they had biological (e.g. neutralizing) activity. Several potentially HIV-1 neutralizing antibodies were identified during initial screening of the cell culture supernatants. One of these was cloned into a hetero-hybridoma cell line and the IgG mAb was purified (SMB2-2). The mAb bound to HIV-1 gp120 and gp140 proteins (FIG. 14) and captured HIV-1 virions (FIG. 15) and neutralized infection of HIV-1 strains SF162 and MN in vitro (FIG. 16). In preliminary experiments, SMB2-2 neutralized infection of HIV-1 strains SF162 and MN in vitro with an IC50˜10 μg/mL. […]

[4] = tested on: IgG+ memory B cells infected with EBV B95-8; experiment: Outgrowth of EBV-infected IgG+ memory B cells (positive wells at 4 weeks); assay type: cell-based, human; details: EBV B95-8 MOI 5, CpG 2.5 μg/mL, Chk2i 5 μM, 1,000 and 300 cells per well
Text: This Example pertains to the evaluation of whether inhibition of the DDR, in particular Chk2, is capable of increasing the efficiency of EBV transformation of memory B cells and whether the frequency of antibody secreting cells will increase. As a positive control, CpG 2006 TLR9 agonist was included either alone or together with Chk21. The CpG employed was CpG 2006 (Hartmann and Krieg, The Journal of Immunology, 2000, 164: 944-952.). The Chk2i employed was Chk2i II (Arienti et al., 2005 J. Med Chem 48:1873-1875).
Normal donor peripheral blood mononuclear cells (PBMC) were sorted to >95% pure IgG+ memory B cells using a scheme of positive selection for CD19 and CD27 and negative selection of IgM, IgD, and IgA. Cells were then infected with EBV B95-8 strain at an MOI of 5 and either DMSO, CpG (2.5 μg/mL), Chk2i (5 μM), or CpG +Chk21. Cells were seeded in 96-well plates with 50,000 lethally irradiated J774A.1 cells at different amounts. […] Wells were analyzed at 4 weeks for outgrowth and positive wells are plotted as a percentage for each condition. […] These were measured by IgG-specific ELISA.

[5] = tested on: Chk1 and over 30 other serine/threonine kinases; details: Arienti et al., 2005; cited from earlier work
CD19+ B cells = experiment: B cell number after mitogen stimulation (flow cytometry count); assay type: cell-based, human; details: 5 μM Chk2i II vs DMSO, different time points
Description: FIG. 11 is bar graph showing that Chk2 […] the total B cell number following CpG treatment or EBV infection. PBMC were stimulated with CpG 2006 (2.5 μg/mL) or infected with EBV (B95-8, MOI 5). CD19+ B cells were assayed 7 days after treatment of infection using flow cytometry. The total number of viable CD19+ B cells is plotted.
FIG. 12 is a histogram showing that Chk2 inhibition increased B cell number following CpG or CpG system stimulation. Cells were assayed at different time points after stimulation. Circles are CpG treated samples and squares are CpG system treated samples. Open symbols are DMSO-treated and closed symbols are Chk21-treated.
Inhibition of the DDR increased B Cell proliferation in response to mitogens This Example pertains to inhibition of the DDR signaling pathway as a means to increase B cell mitogen induced proliferation. In FIG. 11 inhibition of Chk2 increased the number of B cells proliferating following either CpG DNA treatment or EBV infection as B cell mitogens. […] Total B cell number refers to CD19+ cells gated for viability using forward and side scatter and normalized to polystyrene beads.
The proliferation of cells in response to a combination of mitogenic signals was also assayed in the presence of a DNA damage response inhibitor. […] Cells were counted at different time points using the assay described in Example 10. […]

Compound	B cell proliferation in the absence of EBV [1]	B-cell proliferation (CD19+/CFSElo cells of total PBMCs) [1]	increase of EBV-mediated transformation efficiency ([2]; 2 μM inhibitor)	increase of EBV-mediated transformation efficiency ([2]; 5 μM inhibitor) [fold]	frequency of IgG positive cell clones [3]	outgrowth of memory B cells (positive wells) [4]	EBV transformation efficiency (in words) ([2]; 2 μM and 5 μM vs DMSO)	specificity over Chk1 and over 30 other serine/threonine kinases [5]	B cell number following CpG stimulation (CD19+ B cells)	B cell number following CpG system stimulation (CD19+ B cells; CpG DNA, anti-Ig, IL-2, IL-10)
O=c1cc(-c2cccc3c2Sc2ccccc2S3)oc(N2CCOCC2)c1 [ATMi]	No effect	dose dependent increase	approximately 3 fold	~30	–	–	–	–	–	–
CC(=O)c1ccc2c(c1)C=C(c1ccc(Oc3ccc(Cl)cc3)cc1)C2 [Chk2i II]	No effect	dose dependent increase	–	–	increase	increased the ability of B cells to grow out	dramatic and dose-dependent increase	exquisite specificity	increased	increased
